Assay results taken from ChEMBL document CHEMBL1138977, “Design and synthesis of novel 5,6-disubstituted uracil derivatives as potent inhibitors of thymidine phosphorylase” (Bioorg Med Chem Lett, 2006).

Target: Thymidine phosphorylase (Escherichia coli K-12, UniProt P07650)
Assay: Inhibition of Escherichia coli TP

Sequence of Thymidine phosphorylase (P07650 whole entry): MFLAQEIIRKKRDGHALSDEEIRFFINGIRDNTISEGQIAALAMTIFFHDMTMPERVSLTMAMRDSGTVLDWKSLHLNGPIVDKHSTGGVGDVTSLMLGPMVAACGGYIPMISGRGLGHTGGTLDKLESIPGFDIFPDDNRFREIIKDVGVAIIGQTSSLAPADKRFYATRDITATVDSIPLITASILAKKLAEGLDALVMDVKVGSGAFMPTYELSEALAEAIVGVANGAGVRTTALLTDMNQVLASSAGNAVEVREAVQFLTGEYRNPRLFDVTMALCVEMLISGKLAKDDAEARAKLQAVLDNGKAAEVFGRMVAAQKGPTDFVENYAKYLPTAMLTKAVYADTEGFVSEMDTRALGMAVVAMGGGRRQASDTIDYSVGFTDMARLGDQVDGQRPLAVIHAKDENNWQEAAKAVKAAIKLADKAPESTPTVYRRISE

Point of comparison: `Oc1nc(O)c(Br)c(N2CCCCC2)n1`, IC50 9.1 µM. Against it:
- Oc1nc(O)c(Cl)c(N2CCC2)n1 — 1.5-fold higher, 14 µM
- Oc1nc(O)c(Br)c(NC2CC2)n1 — 2.6-fold lower, 3.5 µM
- OCC1CCCN(c2nc(O)nc(O)c2Cl)C1 (stereo unspecified) — 1.7-fold lower, 5.4 µM
- OCCC1CCN(c2nc(O)nc(O)c2Cl)CC1 — 1.7-fold lower, 5.5 µM
- OCC1CCCN(c2nc(O)nc(O)c2Br)C1 (stereo unspecified) — within 1.5-fold, 6.5 µM
- OCC1CCN(c2nc(O)nc(O)c2Br)CC1 — 1.7-fold lower, 5.5 µM
- OCC1CCCCN1c1nc(O)nc(O)c1Br (stereo unspecified) — within 1.5-fold, 6.5 µM
- OCC1CCCCN1c1nc(O)nc(O)c1Cl (stereo unspecified) — 2.1-fold lower, 4.3 µM
- Oc1nc(O)c(Br)c(NCCNc2nc(O)nc(O)c2Br)n1 — 3.6-fold lower, 2.5 µM
- Oc1nc(O)c(Cl)c(N2CCCC2)n1 — 2.1-fold lower, 4.4 µM
- Oc1nc(O)c(Cl)c(NC2CC2)n1 — within 1.5-fold, 10.1 µM
- Oc1nc(O)c(Cl)c(N2CCN(c3nc(O)nc(O)c3Cl)CC2)n1 — within 1.5-fold, 8.7 µM
- Oc1nc(O)c(Cl)c(N2CCCCC2)n1 — within 1.5-fold, 7.3 µM
- Oc1nc(O)c(Cl)c(N2CCOCC2)n1 — within 1.5-fold, 10.4 µM
- Oc1nc(O)c(Br)c(N2CCC2)n1 — 4.5-fold lower, 2 µM
- Nc1[nH]c(=O)[nH]c(=O)c1Cl — 2.3-fold lower, 4 µM
- Oc1nc(O)c(Br)c(N2CCOCC2)n1 — within 1.5-fold, 11.6 µM
- OCCC1CCN(c2nc(O)nc(O)c2Br)CC1 — within 1.5-fold, 6.1 µM
- NNc1nc(O)nc(O)c1Cl — the same, 9.1 µM
- Oc1nc(O)c(Br)c(N2CCN(c3nc(O)nc(O)c3Br)CC2)n1 — 4-fold lower, 2.3 µM
